We go through three compounds from US11542235B2, “Herbicidal 3-azaspiro[5.5] undecane-8, 10-dione compounds” (SYNGENTA PARTICIPATIONS AG, priority 2018, dated 2023).

Holding throughout (type): in vivo
The subject of data set [1] is Alopecurus myosuroides (ALOMY). In words: Glasshouse herbicidal test, pre- and post-emergence, Alopecurus myosuroides. The settings on record: 250 g/h, evaluated after 13 days, five point scale; for percentage damage caused to the plant, ALOMY POST: post-emergence; for percentage damage caused to the plant, ALOMY PRE: pre-emergence. The method, boiled down: (§1)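 Pots of the weeds sprayed either 1 day after sowing (pre-emergence) or after 8 days' growth (post-emergence), at 250 g/h in acetone/water with 0.5% Tween 20. Grown in a glasshouse at 24/16° C. day/night with 14 h light and 65% humidity. Damage scored 13 days later on a 1–5 scale (5=80-100%, 1=0-19%).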

Another data set concerns wheat. In words: Post-emergence crop phytotoxicity, wheat, with or without safener CQC. As for the experimental part: (§2) Seeds of a variety of test species are sown in standard soil in pots (Lolium perenne (LOLPE), Setaria faberi (SETFA), Alopecurus myosuroides (ALOMY), Echinochloa crus-galli (ECHCG), Avena fatua (AVEFA)). After cultivation for one day (pre-emergence) or after 8 days cultivation (post-emergence) under controlled conditions in a glasshouse (at 24/16° C., day/night; 14 hours light; 65% humidity), the plants are sprayed with an aqueous spray solution derived from the formulation of the technical active ingredient in acetone/water (50:50) solution containing 0.5% Tween 20 (polyoxyethelyene sorbitan monolaurate, CAS RN 9005-64-5). Compounds are applied at […]. The test plants are then grown in a glasshouse under controlled conditions in a glasshouse (at 24/16° C., day/night; 14 hours light; 65% humidity) and watered twice daily. After 13 days for pre and post-emergence, the test is evaluated for the percentage damage caused to the plant. The biological activities are shown in the following table on a five point scale (5=80-100%; 4=60-79%; 3=40-59%; 2=20-39%; 1=0-19%).
(§3) Using procedures outlines above, wheat and barley crop plants are treated, along with two weed species Avena fatua (AVEFA) and Lolium multiflorum (LOLPE) post-emergence with compound A2 of the present invention or comparator compound C1 (Compound A-38 from WO2014/096289) at the application rates indicated. The compounds were also applied in conjunction with the safener compound cloquintocet-mexyl (CQC) at 50 g/ha.

The subject of the next data set is Lolium multiflorum. Put plainly: Post-emergence weed phytotoxicity, Lolium multiflorum, with or without safener CQC. As for the experimental part: as §2, §3
Data set [2] deals with Avena fatua (AVEFA). In words: Glasshouse herbicidal test, pre- and post-emergence, Avena fatua. The settings on record: 250 g/h, evaluated after 13 days, five point scale; for percentage damage caused to the plant, AVEFA POST: post-emergence; for percentage damage caused to the plant, AVEFA PRE: pre-emergence. The method, boiled down: as §1
For the next data set, the system named is Lolium perenne (LOLPE). In words: Glasshouse herbicidal test, pre- and post-emergence, Lolium perenne. The settings on record: 250 g/h, evaluated after 13 days, five point scale; for percentage damage caused to the plant, LOLPE POST: post-emergence; for percentage damage caused to the plant, LOLPE PRE: pre-emergence. The method, boiled down: as §1
A further data set deals with barley. Put plainly: Post-emergence crop phytotoxicity, barley, with or without safener CQC. The procedure: as §2, §3
In data set [3] the test system is Avena fatua (AVEFA). In words: Post-emergence weed phytotoxicity, Avena fatua, with or without safener CQC. As for the experimental part: as §2, §3
Another data set concerns Setaria faberi (SETFA). In words: Glasshouse herbicidal test, pre- and post-emergence, Setaria faberi. The settings on record: 250 g/h, evaluated after 13 days, five point scale; for percentage damage caused to the plant, SETFA PRE: pre-emergence. The method, boiled down: as §1
The subject of data set [4] is Echinochloa crus-galli (ECHCG). In words: Glasshouse herbicidal test, pre- and post-emergence, Echinochloa crus-galli. The settings on record: 250 g/h, evaluated after 13 days, five point scale; for percentage damage caused to the plant, ECHCG PRE: pre-emergence. Put shortly:
as §1

[5] abbreviates: 60 g/ha + safener cloquintocet-mexyl (CQC) at 50 g/ha.

Consider `CC#Cc1cc(C)c(C2C(=O)CC3(CCN(C(C)=O)CC3)CC2=O)c(C)c1` [Compound A2, 3-acetyl-9-(2,6-dimethyl-4-prop-1-ynyl-phenyl)-3-azaspiro[5.5]undecane-8,10-dione], for which the “percentage damage caused to the plant, ALOMY POST” value in [1] is 5 (5=80-100%). The “percentage damage caused to the plant, ALOMY PRE” value in data set [1] is given as 5 (5=80-100%). The figures for the “% phytotoxicity, Wheat” value with wheat (30 g/ha), in the data set with wheat (60 g/ha) and in the data set with wheat (setting [5]) were 5%, 15% and 5%, respectively. The “damage to the wheat crop compared to prior art compound C1” value in the data set on wheat (rates of Table B2) was “significantly less damaging”. The “% phytotoxicity, LOLMU” value is 98% with Lolium multiflorum (30 g/ha), 100% with Lolium multiflorum (60 g/ha) and 100% in the data set with Lolium multiflorum (setting [5]). For the same compound, the “percentage damage caused to the plant, AVEFA POST” value with Avena fatua (AVEFA) [2] is reported as 5 (5=80-100%). Also, in the data set with Avena fatua (AVEFA) [2], the “percentage damage caused to the plant, AVEFA PRE” value is 5 (5=80-100%). Besides, the “percentage damage caused to the plant, LOLPE POST” value with Lolium perenne (LOLPE) was 5 (5=80-100%). Besides, the “percentage damage caused to the plant, LOLPE PRE” value with Lolium perenne (LOLPE) was 5 (5=80-100%). Further, the “% phytotoxicity, Barley” value in the data set with barley (30 g/ha) is 0%; in the data set with barley (60 g/ha), 15%; in the data set with barley (setting [5]), 0%. Besides, the “damage to the barley crop compared to prior art compound C1” value with barley (rates of Table B2) is listed as “significantly less damaging”. Also, the “% phytotoxicity, AVENA” value came out at 75% with Avena fatua (AVEFA) [3] (30 g/ha), 92% in the data set with Avena fatua (AVEFA) [3] (60 g/ha) and 92% with Avena fatua (AVEFA) [3] (setting [5]). Further, the “percentage damage caused to the plant, SETFA PRE” value in the data set on Setaria faberi (SETFA) was 5 (5=80-100%). Further, the “percentage damage caused to the plant, ECHCG POST” value in [4] (post-emergence) is 5 (5=80-100%). The “percentage damage caused to the plant, ECHCG PRE” value in data set [4] is on record as 5 (5=80-100%).

On to `CC#Cc1cc(C)c(C2C(=O)CC3(CCOCC3)CC2=O)c(C)c1` [Compound C1, reference compound], for which the “% phytotoxicity, Wheat” value was 25% in the data set on wheat (30 g/ha), 75% in the data set with wheat (60 g/ha) and 50% with wheat (setting [5]). Also, the “% phytotoxicity, LOLMU” value in the data set on Lolium multiflorum (30 g/ha) stood at 98%; in the data set with Lolium multiflorum (60 g/ha) it was 100%; in the data set on Lolium multiflorum (setting [5]), 100%. Moreover, the “% phytotoxicity, Barley” value in the data set with barley (30 g/ha) is 5%; in the data set with barley (60 g/ha) it was 90%; in the data set with barley (setting [5]) it was 18%. Besides, the “% phytotoxicity, AVENA” value in the data set with Avena fatua (AVEFA) [3] (30 g/ha) was found to be 65%; in the data set on Avena fatua (AVEFA) [3] (60 g/ha) it was 90%; with Avena fatua (AVEFA) [3] (setting [5]) it was 80%.

Take `CC#Cc1cc(C)c(C2=C(OC(=O)OC)CC3(CCN(C(C)=O)CC3)CC2=O)c(OC)c1` [Compound P18]: in [1], the “percentage damage caused to the plant, ALOMY POST” value was 5 (5=80-100%) and the “percentage damage caused to the plant, ALOMY PRE” value is 5 (5=80-100%). In addition, in the data set on Avena fatua (AVEFA) [2], the “percentage damage caused to the plant, AVEFA POST” value is on record as 5 (5=80-100%) and the “percentage damage caused to the plant, AVEFA PRE” value is given as 5 (5=80-100%). Moreover, in the data set on Lolium perenne (LOLPE), the “percentage damage caused to the plant, LOLPE POST” value is listed as 5 (5=80-100%) and the “percentage damage caused to the plant, LOLPE PRE” value is 5 (5=80-100%). Moreover, the “percentage damage caused to the plant, SETFA POST” value in the data set on Setaria faberi (SETFA) (post-emergence) is recorded as 5 (5=80-100%). Further, the “percentage damage caused to the plant, SETFA PRE” value in the data set with Setaria faberi (SETFA) was 5 (5=80-100%). For the same compound, in [4], the “percentage damage caused to the plant, ECHCG PRE” value is listed as 5 (5=80-100%).
